Source: patent US7214386B2, “Method for the treatment and prevention of overweight in mammals” (priority 2002, dated 2007)

Columns and labels:
[1] = Plasma insulin in rats (radioimmunoassay); conditions: rats on high fat diet, after 2½ weeks of treatment versus after 1 week on the high fat diet
[2] = Plasma glucose in rats (oxidase-peroxidase method); conditions: rats on high fat diet, after 2½ weeks of treatment versus after 1 week on the high fat diet
3T3-L1 cells = experiment: Effect of dill extract on isoprenaline-stimulated lipolysis (glycerol formation) in differentiated 3T3-L1 cells; type: cell-based; conditions: 24 hours incubation, glycerol formation of sample A divided by that of sample B (isoprenaline alone)
Description: 3T3-L1 cells were grown in T75 flasks. The cells were detached by trypsin incubation (±5 min at 37° C.). After detachment, 4 ml lipolysis standard medium was added to the flask (DMEM; 10% fetal calf serum; 4.5 g/l D-glucose; 100 U/ml penicillin; 100 μg/ml streptomycin) and the cells were suspended therein. The cell suspension was then diluted in lipolysis standard medium to 50000 cells/ml (5000 cells/100 μl), and 100 μl of this diluted cell mix was transferred to a precoated well in a 96 wells plate. […] Thereafter the solution was removed). After incubation for 48 hours at 37° C., the medium was refreshed (removal of old medium and addition of 100 μl lipolysis standard medium) and the cells incubated at 37° C. After 72 hours, the supernatant was removed and 100 μl differentiation medium (5 μg/ml bovine insuline; 0.25 μM dexamethasone; 0.5 mM IBMX; in standard medium) was added. […] After 24 hours incubation at 37° C., the glycerol concentration in the supernatant was determined using a glycerol assay (Sigma Cat.no. 337) against a standard curve of glycerol in lipolysis standard medium. The relative lipolysis inhibiting activity of the dill extract was calculated by dividing the glycerol formation of sample A of interest by the glycerol formation of sample B.

Cn1c(=O)c2c(ncn2C)n(C)c1=O [caffeine]
plasma insulin levels (FIG. 3) [1]: no reduction | plasma glucose levels (FIG. 3) [2]: significant reduction

CC(C)NCC(O)c1ccc(O)c(O)c1 (stereo not drawn) [isoprenaline]
Relative lipolysis inhibiting effect (3T3-L1 cells): 1
